Where two headings read alike, the source gives them in different places.
Experiments:
hepatocytes [1] = conditions: mouse, in vivo; cited from earlier work
rats = conditions: intravenous injection; cited from earlier work
hepatocytes [2] = conditions: rat, in vivo, 1100 mg/kg; cited from earlier work
A375 cells [3] = test: A375 xenograft in nude mice; format: in vivo, BALB/c-nude mice
Method: The 8-week-old female BALB/c-nude mice (18–20 g, specific pathogen-free, SPF) were obtained from the Laboratory Animal Experimental Center of the Academy of Military Medical Sciences (SCXK2012-0004, Beijing, China), and were injected with A375 cells and siENO1-A375 cells (1 × 10^7), respectively. One weeks after the tumor formation, four groups were set up: the “negative control (NC)” group (A375 cells, injected with PBS/day); “siENO1” group (siENO1-A375 cells, injected with PBS/day); “Dacarbazine” group (A375 cells, injected with 10 mg/kg/day dacarbazine); and the “CAD-14” group (A375 cells, injected with 5 mg/kg/day CAD-14). The tumor volume was measured every three days and calculated as length × width^2/2. After two weeks, the mice were sacrificed.
Tumor tissues were isolated from the mice after sacrifice. Then, the tissues were fixed in 4% paraformaldehyde and embedded in paraffin. For immunohistochemistry staining, tissues were stained with Ki67 (GB111141, Servicebio, Wuhan, China). For immunofluorescent staining, tissues were stained with ENO1 (bs-3978R, Bioss, Beijing, China).
Figure 5 CAD-14 inhibited the growth of A375 cells in vivo. (A–C) The A375 cells were transfected with three different recombinant ENO1 retroviral vectors and an NC virus for 72 h; the effect of recombinant retrovirus on ENO1 expression were evaluated via fluorescence photography and Western blotting. Histograms show the intensity ratio. (n = 3). Values represent the means ± SD. ** p < 0.01 versus “NC” group. (D–F) Cells were injected subcutaneously into nude mice. Then, they were treated with Dacarbazine (10 mg/kg/day, as a positive control) or CAD-14 (5 mg/kg/day) for two weeks (the red arrow at day 7 represents the first day of treatment). The tumor volume was calculated (n = 5). (G,H) Immunofluorescent staining of Ki67 and ENO1 to detect proliferation ability and expression of ENO1 in tumor tissues, respectively. Values represent the means ± SD. * p < 0.05 versus “PBS” group.

[4] = tested on: melanoma cell lines (A375, A875, SK-MEL-1); test: Initial screening of analogues against melanoma cell lines; format: cell-based; conditions: for activity in initial screening: A375, A875, SK-MEL-1, 0–50 µM, 72 h, Figure 2A–C
Method: (§1) The HepG-2, HUVEC, L-02, HK-2, A375, A549, H8, U251, HeLa, Cal-27, and PANC-1 cells were maintained in a DMEM medium. The TSSCA, SK-MEL-1, and […] cells were cultured in an RPMI-1640 medium, and the A875 cells were cultured in a MEM medium. All cells were supplemented with 10% fetal bovine serum, 100 units/mL penicillin, and streptomycin at 37 °C in 5% CO2. The Cell Counting Kit-8 (CCK-8, bs-0764P, Bioss, Beijing, China) method was used to assay the cytotoxicity.
(§2) Figure 2 Effect of CA analogues in melanoma cells. (A–D) The different melanoma cell lines were treated with 0–50 µM analogues for 72 h, and then IC50 value was assayed (A dashed blue line: 50% inhibition rate; red box: analogues with high activity).

SK-MEL-1 cells = test: CCK-8 cell viability, SK-MEL-1 melanoma cells; format: cell-based; conditions: Homo sapiens, 0–50 µM, 72 h
Method: as §1, §2

[5] = Developmental/acute toxicity test of zebrafish embryos; format: in vivo; conditions: AB wild-type, in vivo; zebrafish embryos, 96 h exposure; read-out: median death concentration (IC50)
Excerpt: (§3) The AB-wild-type adult zebrafish (three months old) were purchased from the Institute of Aquatic Biology, Chinese Academy of Sciences (Wuhan, China). During breeding, male and female fish were placed in separate spawning boxes at a 1:1 ratio. Then, early in the morning, they were mixed and laid eggs. During the exposure period, 96-well plates containing normal embryos were randomly selected and viewed daily under a light microscope to assess the developmental toxicity.
(§4) (A) The embryo morphology after CAD-14 treatment for 0–96 h. (B) Survival statistics in different time and concentration.

zebrafish embryos = test: as above; format: in vivo; conditions: 96 h
Excerpt: as §3, §4

A375 cells [6] = test: CCK-8 cell viability, A375 melanoma cells; format: cell-based; conditions: Homo sapiens, A-375, 0–50 µM, 72 h
Method: as §1, §2

A375 cells [7] = test: Colony formation assay; format: cell-based; conditions: A375, 0–0.02 µM, 14 days, versus Ctrl
Method: The A375 cells were plated onto six-well plates (500 cells/well), and after 24 h, CAD-14 (0–0.02 µM) was added to the medium and incubated for an additional 14 days. Cells were fixed in methanol and stained with Giemsa. The colonies were then scored and photographed.
(§5) Figure 3 CAD-14 inhibited the proliferation of A375 cells. (A) The different tumor and normal cell lines were treated with 0–200 µM CAD-14 for 72 h, and then IC50 value was assayed. (B) Cells were treated with 0–0.02 µM CAD-14 for 14 days, and Giemsa staining was used to conduct colony formation assays; the histogram depicts the number of colonies. (C,D) Cells were treated with 0–0.8 µM CAD-14 for 24 h; then, the related proteins were tested via Western blotting. Histograms depict the intensity ratio. (E,F) Cells were treated with 0–0.4 µM CAD-14 for 24 h, then the DNA content of the cells was determined with a flow cytometry system. Histograms show the percentage of cells in G0/G1, G2/M, and S phase. Values represent the means ± SD. * p < 0.05, ** p < 0.01 versus “Ctrl” group.

ENO1 = target: T1, ENO1 (Homo sapiens, UniProt P06733); test: Western blot and cellular thermal shift assay (CETSA) of ENO1; format: binding
T1 construct: endogenous in cells; host or cells: A375 cells (whole-cell extracts or cell lysates)
T1 sequence (P06733 whole entry): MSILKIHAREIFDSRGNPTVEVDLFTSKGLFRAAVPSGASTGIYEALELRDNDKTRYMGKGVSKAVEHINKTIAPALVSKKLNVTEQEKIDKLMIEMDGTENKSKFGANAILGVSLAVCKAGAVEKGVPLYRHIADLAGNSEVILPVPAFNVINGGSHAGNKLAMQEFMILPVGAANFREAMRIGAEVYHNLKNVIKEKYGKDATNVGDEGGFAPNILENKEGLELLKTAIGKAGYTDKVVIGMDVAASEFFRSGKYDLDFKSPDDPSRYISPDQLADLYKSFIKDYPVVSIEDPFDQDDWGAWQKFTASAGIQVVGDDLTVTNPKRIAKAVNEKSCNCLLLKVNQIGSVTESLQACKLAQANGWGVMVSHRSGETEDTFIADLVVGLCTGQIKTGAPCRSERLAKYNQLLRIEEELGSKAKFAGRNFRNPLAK
Method: (§6) The A375 cells were treated with CAD-14 (0–0.8 µM), alone or with indicated agents, for 24 h. Whole-cell extracts were loaded for SDS-PAGE gels depending on the target protein sizes, and were explored with protein-specific antibodies followed by HRP-conjugated secondary antibodies. Bands corresponding to the antibodies were detected via ECL chemiluminescence.
In A375 cell lysates, CAD-14 (0.4 μM) was added for 24 h at different temperatures. Western blotting was used to quantify the effects on ENO1 protein levels.
(§7) Figure 4 Validation of the CAD-14 anti-melanoma pathway. (A) Cells were treated with 0–0.8 µM CAD-14 for 24 h, and the ENO1 was assayed via Western blotting. […] (C) Molecular docking analysis of ENO1 and CAD-14. (D) Cells were treated with 0–0.8 µM CAD-14 for 24 h, and the p-38/P-p38 were assayed via Western blot. Histograms show the intensity ratio. Values represent the means ± SD. * p < 0.05, ** p < 0.01 versus “Ctrl” group.

[8] = tested on: Bak, Bcl-2 and survivin in A375 cells; test: Western blotting of apoptosis-related proteins; format: cell-based; conditions: A375, 0–0.8 µM, 24 h, dose-dependent
Method: as §6, §5

A875 cells = test: CCK-8 cell viability, A875 melanoma cells; format: cell-based; conditions: 0–50 µM, 72 h
Method: as §1, §2

[9] = tested on: p38 pathway in A375 cells; test: Western blot of p38/P-p38; format: cell-based; conditions: A375, 0–0.8 µM, 24 h
Method: as §6, §7

A375 cells [10] = test: Cell cycle analysis by flow cytometry; format: cell-based; conditions: A375, 0–0.4 µM, 24 h, concentration-dependent
Method: The A375 cells were incubated with CAD-14 (0–0.4 µM) for 24 h. The cells were collected, washed in PBS, and fixed in ice-cold 75% (v/v) ethanol overnight at –20 °C. The cells were re-suspended, and the DNA content was tested using flow cytometry.
as §5

[11] = tested on: multiple types of cancer cells and normal cells; test: Specificity towards different tumor and normal cell lines; format: cell-based; conditions: 0–200 µM, 72 h; Figure 3A
Method: as §1, §5

For O=C/C=C/c1ccccc1 [CA, Cinnamaldehyde], which “micronucleus rate in hepatocytes” value (hepatocytes [1]) is on record?
The value was “increased”.

What about the “lethal dose (LD50)” value (rats) of the same compound?
Its value is 74.8 mg/kg.

And the “micronucleus rate in hepatocytes” value (hepatocytes [2])?
The value was “increased”.

What about the “Ki67-positive cells in tumor tissues” value (A375 cells [3]; staining of tumor tissues, Figure 5G) of the same compound?
Its value is “obvious decrease in Ki67-positive cells”.

With O=C/C=C/c1cccnc1 [CAD-20, (E)-3-(pyridin-3-yl)acrylaldehyde] as the compound, how does the “activity in initial screening” value [4] read?
The value was “strong activity”.

With O=C/C=C/c1cccc(Cl)c1 [CAD-10, (E)-3-(3-chlorophenyl)acrylaldehyde] as the compound, how does the “activity in initial screening” value [4] read?
Its value is “strong activity”.

With “(E)-3-(pyridin-3-yl)acrylaldehyde [CAD-19]” as the compound, how does the “activity in initial screening” value [4] read?
Its value is “strong activity”.

With O=C/C=C/c1cccc(Cl)c1Cl [CAD-12, (E)-3-(2,3-dichlorophenyl)acrylaldehyde] as the compound, how does the “activity in initial screening” value [4] read?
The value was “strong activity”.

With O=C/C=C/c1c(F)c(F)c(F)c(F)c1F [CAD-14, (E)-3-(perfluorophenyl)acrylaldehyde] as the compound, how does the IC50 (SK-MEL-1 cells) read?
Its IC50 is 820 nM.

And the LC50 (median lethal concentration) at 96 h [5]?
The LC50 (median lethal concentration) at 96 h was 83700 nM.

What about the “Malformation Rates” value (zebrafish embryos; 8 μM) of the same compound?
Its value is 0.00%.

What about the Mortalities (zebrafish embryos; 8 μM) of the same compound?
Its Mortalities is 0.00%.

And the “Number of Deaths” value (zebrafish embryos; 8 μM)?
The value was 0.

And the “Number of Deformities” value (zebrafish embryos; 8 μM)?
The value was 0.

What about the “Survival Number” value (zebrafish embryos; 8 μM) of the same compound?
The value was 20.

What about the “Malformation Rates” value (zebrafish embryos; 16 μM) of the same compound?
Its value is 0.00%.

What about the Mortalities (zebrafish embryos; 16 μM) of the same compound?
The Mortalities was 0.00%.

And the “Number of Deaths” value (zebrafish embryos; 16 μM)?
The value was 0.

What about the “Number of Deformities” value (zebrafish embryos; 16 μM) of the same compound?
Its value is 0.

What about the “Survival Number” value (zebrafish embryos; 16 μM) of the same compound?
Its value is 20.

What about the “Malformation Rates” value (zebrafish embryos; 32 μM) of the same compound?
Its value is 0.00%.

What about the Mortalities (zebrafish embryos; 32 μM) of the same compound?
The Mortalities was 0.00%.

What about the “Number of Deaths” value (zebrafish embryos; 32 μM) of the same compound?
The value was 0.

What about the “Number of Deformities” value (zebrafish embryos; 32 μM) of the same compound?
Its value is 0.

What about the “Survival Number” value (zebrafish embryos; 32 μM) of the same compound?
Its value is 20.

What about the “Malformation Rates” value (zebrafish embryos; 64 μM) of the same compound?
Its value is 0.00%.

What about the Mortalities (zebrafish embryos; 64 μM) of the same compound?
Its Mortalities is 0.00%.

And the “Number of Deaths” value (zebrafish embryos; 64 μM)?
Its value is 0.

What about the “Number of Deformities” value (zebrafish embryos; 64 μM) of the same compound?
The value was 0.

What about the “Survival Number” value (zebrafish embryos; 64 μM) of the same compound?
The value was 20.

What about the Mortalities (zebrafish embryos; 128 μM) of the same compound?
Its Mortalities is 90.00%.

And the “Number of Deaths” value (zebrafish embryos; 128 μM)?
The value was 18.

What about the “Number of Deformities” value (zebrafish embryos; 128 μM) of the same compound?
Its value is 0.

What about the “Survival Number” value (zebrafish embryos; 128 μM) of the same compound?
Its value is 2.

And the IC50 (A375 cells [6])?
Its IC50 is 580 nM.

And the “activity in initial screening” value [4]?
The value was “strong activity”.

What about the “effect relative to CA” value ([4]; times stronger than CA) of the same compound?
The value was 80 times.

And the “effect relative to positive drug DTIC” value ([4]; times stronger than DTIC, Figure 2D)?
Its value is roughly 15 times.

And the number of colonies (A375 cells [7])?
Its number of colonies is “significantly reduced the number of colonies”.

What about the “thermal stability of ENO1 (temperature-dependent CETSA)” value (ENO1; 0.4 μM, A375 cell lysates) of the same compound?
The value was “decreased the thermal stability of ENO1”.

What about the “stability of ENO1 protein” value (ENO1; Western blot 0–0.8 µM 24 h and CETSA) of the same compound?
The value was “changed the stability of ENO1 protein in a temperature- and dose-responsive manner”.

What about the “expression of anti-apoptotic protein Bcl-2” value [8] of the same compound?
Its value is “substantially diminished”.

What about the “expression of anti-apoptotic protein survivin” value [8] of the same compound?
Its value is “substantially diminished”.

And the “expression of pro-apoptotic protein Bak” value [8]?
The value was “strongly increased”.

What about the tumor growth (A375 cells [3]; 5 mg/kg/day, two weeks, compared with PBS group) of the same compound?
Its tumor growth is “can inhibit the tumor growth”.

What about the “tumor growth effect compared with dacarbazine” value (A375 cells [3]; CAD-14 5 mg/kg/day vs dacarbazine 10 mg/kg/day) of the same compound?
Its value is “the effect was better than dacarbazine”.

And the “ENO1 expression in tumor tissues” value (A375 cells [3]; immunofluorescent staining, Figure 5H)?
The value was “fewer ENO1 accumulated”.

And the IC50 (A875 cells)?
The IC50 was 650 nM.

And the “phosphorylation of p38” value [9]?
Its value is “suppressed the phosphorylation of p38”.

What about the “total p38 protein levels” value [9] of the same compound?
Its value is “did not affect its total protein levels”.

What about the cell cycle arrest (A375 cells [10]) of the same compound?
The cell cycle arrest was “markedly induced S phase arrest”.

What about the “specificity towards cell types” value [11] of the same compound?
The value was “inhibited A375 cells more effectively than other cancer cells and was less sensitive to normal cell lines”.

Which “activity in initial screening” value [4] does the source give for O=C/C=C/c1ccccc1Br [CAD-7, (E)-3-(2-bromophenyl)acrylaldehyde] here?
The value was “strong activity”.

Which “activity in initial screening” value [4] does the source give for O=C/C=C/c1cccc2ccccc12 [CAD-2, (E)-3-(naphthalen-1-yl)acrylaldehyde] here?
Its value is “strong activity”.

— paper PMC10647553, “Evaluating the Anti-Melanoma Effects and Toxicity of Cinnamaldehyde Analogues” (Molecules, 2023)
